Results taken from ChEMBL document CHEMBL5608235, “Tricyclic Benzo[1,3]oxazinyloxazolidinones as Potent Antibacterial Agents against Drug-Resistant Pathogens” (J Med Chem, 2024).
Converted amounts (≈) assume the structure as drawn. The source made the active and inactive calls. The calls are words filed in the database; no cut-off is given here.

Experiments:
Staphylococcus aureus [1] = assay: Antibacterial activity against Staphylococcus aureus ATCC25923 assessed as inhibition of bacterial growth incubated for 18 hrs by microdilution broth assay; assay type: functional
[2] = system: Staphylococcus epidermidis; assay: Antibacterial activity against Staphylococcus epidermidis ATCC12228 assessed as inhibition of bacterial growth incubated for 18 hrs by microdilution broth assay; assay type: functional
Staphylococcus aureus [3] = assay: Antibacterial activity against methicillin resistant Staphylococcus aureus clinical isolate 20-1 assessed as inhibition of bacterial growth incubated for 7 days by alamar blue assay; assay type: functional; conditions: clinical isolate 20-1, 168 h, time 7 day
[4] = system: Staphylococcus epidermidis; assay: Antibacterial activity against methicillin resistant Staphylococcus epidermidis clinical isolate 20-1 assessed as inhibition of bacterial growth incubated for 7 days by alamar blue assay; assay type: functional; conditions: clinical isolate 20-1, 168 h, time 7 day
Staphylococcus aureus [5] = assay: Antibacterial activity against vancomycin intermediate Staphylococcus aureus ATCC700699 assessed as inhibition of bacterial growth incubated for 7 days by alamar blue assay; assay type: functional; conditions: ATCC700699, 168 h, time 7 day
Staphylococcus aureus [6] = assay: Antibacterial activity against Linezolid resistant Staphylococcus aureus clinical isolate 20-2 assessed as inhibition of bacterial growth incubated for 7 days by alamar blue assay; assay type: functional; conditions: clinical isolate 20-2, 168 h, time 7 day
[7] = Metabolic stability in ICR mouse liver microsomes assessed as compound remaining at 10 uM incubated for 60 mins in absence of NADPH by LC-MS/MS analysis; assay type: ADME, Microsome; conditions: read-out: Stability
[8] = Metabolic stability in human liver microsomes assessed as substrate remaining at 10 uM incubated for 60 mins in presence of NADPH by LC-MS/MS analysis; assay type: ADME, Microsome; conditions: read-out: Stability
[9] = Cmax in BALB/c mouse at 10 mg/kg,po administration measured upto 24 hrs by LC-MS/MS analysis; assay type: ADME, organism-based; conditions: in vivo
[10] = MRT (0 to t) in BALB/c mouse at 1 mg/kg,iv administration measured upto 24 hrs by LC-MS/MS analysis; assay type: ADME, organism-based; conditions: in vivo
[11] = MRT (0 to infinity) in BALB/c mouse at 1 mg/kg,iv administration measured upto 24 hrs by LC-MS/MS analysis; assay type: ADME, organism-based; conditions: in vivo
[12] = Oral bioavailability in BALB/c mouse at 10 mg/kg administration measured upto 24 hrs by LC-MS/MS analysis; assay type: ADME, organism-based; conditions: BALB/c, in vivo
[13] = Plasma protein binding in BALB/c mouse at 1 mg/kg,iv administration measured upto 24 hrs by LC-MS/MS analysis; assay type: ADME, organism-based; conditions: read-out: PPB (converted)
Staphylococcus aureus [14] = assay: Antibacterial activity against vancomycin resistant Staphylococcus aureus assessed as inhibition of bacterial growth incubated for 7 days by alamar blue assay; assay type: functional; conditions: 168 h, time 7 day
Staphylococcus aureus [15] = assay: Inhibition of protein synthesis in Staphylococcus aureus ATCC 29213 by translation assay; assay type: functional, organism-based
[16] = Drug concentration in BALB/c mouse plasma at 10 mg/kg,po administration measured within 15 mins by LC-MS/MS analysis; assay type: ADME, organism-based
Staphylococcus aureus [17] = assay: Antibacterial activity against methicillin resistant Staphylococcus aureus ATCC 33592 infected in cyclophosphamide-induced immunosuppressed Kunming mouse by measuring survival rate of mouse at 10 mg/kg,po administration measured for 7 days; assay type: functional; conditions: ATCC 33592, 168 h, time 7 day
Staphylococcus aureus [18] = assay: Antibacterial activity against methicillin resistant Staphylococcus aureus ATCC 33592 infected in cyclophosphamide-induced immunosuppressed Kunming mouse assessed as increase in body weight at 10 to 50 mg/kg,po administration measured for 7 days; assay type: functional, organism-based; conditions: dose 10-50 mg/kg, time 7.0 day
Staphylococcus aureus [19] = assay: Antibacterial activity against methicillin resistant Staphylococcus aureus ATCC 33592 infected in cyclophosphamide-induced immunosuppressed Kunming mouse assessed as reduction of bacterial load in liver at 10 to 50 mg/kg,po administration measured after 24 hrs by hematoxylin and eosin staining based microscopy; assay type: functional, organism-based; conditions: dose 10-50 mg/kg
Staphylococcus aureus [20] = assay: Antibacterial activity against methicillin resistant Staphylococcus aureus ATCC 33592 infected in cyclophosphamide-induced immunosuppressed Kunming mouse assessed as increase in IL-10 level at po administration measured after 24 hrs by ELISA; assay type: functional, organism-based
Staphylococcus aureus [21] = assay: Antibacterial activity against methicillin resistant Staphylococcus aureus ATCC 33592 infected in cyclophosphamide-induced immunosuppressed Kunming mouse assessed as reduction in histopathological change in spleen at 50 mg/kg,po administration measured after 24 hrs by hematoxylin and eosin staining based microscopy; assay type: functional, organism-based
Staphylococcus aureus [22] = assay: Antibacterial activity against methicillin resistant Staphylococcus aureus ATCC 33592 infected in cyclophosphamide-induced immunosuppressed Kunming mouse assessed as reduction in congestion in spleen at 50 mg/kg,po administration measured after 24 hrs by hematoxylin and eosin staining based microscopy; assay type: functional, organism-based
Staphylococcus aureus [23] = assay: Antibacterial activity against methicillin resistant Staphylococcus aureus ATCC 33592 infected in cyclophosphamide-induced immunosuppressed Kunming mouse assessed as reduction in inflammatory cell infiltration in lung at 10 to 50 mg/kg,po administration measured after 24 hrs by hematoxylin and eosin staining based microscopy; assay type: functional, organism-based; conditions: dose 10-50 mg/kg
Staphylococcus aureus [24] = assay: Antibacterial activity against methicillin resistant Staphylococcus aureus ATCC 33592 infected in cyclophosphamide-induced immunosuppressed Kunming mouse assessed as reduction in histopathological change in lung at 25 to 50 mg/kg,po administration measured after 24 hrs by hematoxylin and eosin staining based microscopy; assay type: functional, organism-based; conditions: dose 25-50 mg/kg
Cell membrane [25] = assay: Disruption of cell membrane integrity in methicillin resistant Staphylococcus aureus ATCC 33592 assessed as increase in red fluorescence at 0.5 ug/ml incubated for 1 hr by […] and propidium iodide double staining based confocal microscopic analysis; assay type: cell membranes; conditions: dose 0.5 µg/ml
Cell membrane [26] = assay: Disruption of cell membrane integrity in methicillin resistant Staphylococcus aureus ATCC 33592 assessed as increase in blue fluorescence at 0.5 ug/ml incubated for 1 hr by […] and propidium iodide double staining based confocal microscopic analysis; assay type: cell membranes; conditions: dose 0.5 µg/ml
Cell membrane [27] = assay: Disruption of cell membrane integrity in Staphylococcus aureus ATCC 25923 assessed as increase in blue fluorescence at 0.5 ug/ml incubated for 1 hr by […] and propidium iodide double staining based confocal microscopic analysis; assay type: cell membranes; conditions: dose 0.5 µg/ml
Cell membrane [28] = assay: Disruption of cell membrane integrity in methicillin resistant Staphylococcus aureus ATCC 33592 assessed as increase in blue fluorescence at 1 ug/ml incubated for 1 hr by […] and propidium iodide double staining based confocal microscopic analysis; assay type: cell membranes; conditions: dose 1.0 µg/ml
Cell membrane [29] = assay: Disruption of cell membrane integrity in Staphylococcus aureus ATCC 25923 assessed as increase in red fluorescence at 1 ug/ml incubated for 1 hr by […] and propidium iodide double staining based confocal microscopic analysis; assay type: cell membranes; conditions: dose 1.0 µg/ml
Cell membrane [30] = assay: Disruption of cell membrane in methicillin resistant Staphylococcus aureus ATCC 33592 assessed as change in morphology at 0.5 ug/ml incubated for 30 mins by Scanning electron microscopic analysis; assay type: cell membranes; conditions: dose 0.5 µg/ml
Cell membrane [31] = assay: Disruption of cell membrane in methicillin resistant Staphylococcus aureus ATCC 33592 assessed as cell shrinkage at 0.5 ug/ml incubated for 6 hrs by Scanning electron microscopic analysis; assay type: cell membranes; conditions: dose 0.5 µg/ml
Cell membrane [32] = assay: Disruption of cell membrane in methicillin resistant Staphylococcus aureus ATCC 33592 assessed as cell lysis at 0.5 ug/ml incubated for 6 hrs by Scanning electron microscopic analysis; assay type: cell membranes; conditions: dose 0.5 µg/ml
Staphylococcus aureus [33] = assay: Inhibition of biofilm formation in methicillin resistant Staphylococcus aureus ATCC 33592 at 0.1 to 10 ug/ml incubated for 48 hrs by crystal violet staining based assay; assay type: functional, organism-based; conditions: dose 0.1-10 µg/ml

For `CC(=O)NC[C@@H]1OC(=O)N2Cc3cc(-c4ccc(C#N)cc4)c(F)cc3O[C@@H]12`, the MIC (Staphylococcus aureus [1]) was 0.5 µg/mL (≈ 1.31 µM), the MIC [2] was 0.032 µg/mL (≈ 0.0839 µM) and the MIC (Staphylococcus aureus [3]) was 0.5 µg/mL (≈ 1.31 µM). The MIC [4] was 0.06 µg/mL (≈ 0.157 µM), the MIC (Staphylococcus aureus [5]) was 0.5 µg/mL (≈ 1.31 µM) and the MIC (Staphylococcus aureus [6]) was 8 µg/mL (≈ 21 µM). It also gave a remaining at 1 h, 10 µM [7] of 101%, a remaining at 1 h, 10 µM [8] of 116% and a Cmax [9] of 4510 ng/mL. The MRT last at 24 h [10] was 6.6 h, the MRT inf [11] was 6.7 h and the bioavailability [12] was 122%. The fraction unbound at 24 h [13] was 0.239, the MIC (Staphylococcus aureus [14]) was 1 µg/mL (≈ 2.62 µM) and the IC50 (Staphylococcus aureus [15]) was 1.5 µg/mL (≈ 3.93 µM). For the same molecule, the concentration at 0.25 h [16] was 1000 ng/mL, the survival at 10 mg/kg (Staphylococcus aureus [17]) was 85.7% and the Activity (Staphylococcus aureus [18]) was “Active”. For the same molecule, the Activity (Staphylococcus aureus [19]) was “Active”, the Activity (Staphylococcus aureus [20]) was “Dose-Dependent Effect” and the Activity (Staphylococcus aureus [21]) was “Active”. The Activity (Staphylococcus aureus [22]) was “Active”, the Activity (Staphylococcus aureus [23]) was “Active” and the Activity (Staphylococcus aureus [24]) was “Active”. For the same molecule, the Activity (Cell membrane [25]) was “Active”, the Activity (Cell membrane [26]) was “Active” and the Activity (Cell membrane [27]) was “Active”. For the same molecule, the Activity (Cell membrane [28]) was “Active”, the Activity (Cell membrane [29]) was “Active” and the Activity (Cell membrane [30]) was “Active”. The Activity (Cell membrane [31]) was “Active”, the Activity (Cell membrane [32]) was “Active” and the inhibition (Staphylococcus aureus [33]) was “Active”.
